Data: PMC3623961, “A Comparative Study of Interaction of Tetracycline with Several Proteins Using Time Resolved Anisotropy, Phosphorescence, Docking and FRET” (PLoS ONE, 2013)
Structures can show the parent of a compound that is named as a salt.

Tests used:
[1] = target: T1, Bovine serum albumin (BSA) (Bos taurus, UniProt P02769); assay: fluorescence enhancement of bound tetracycline, modified Benesi-Hildebrand; conditions: read-out: Binding Constant (M^-1) (converted)
T1 construct: gene ALB; mature serum albumin, 17 disulfides, Trp134 and Trp213; purchased from Sigma-Aldrich
Excerpt: fluorescence enhancement of bound tetracycline, modified Benesi-Hildebrand on Bovine serum albumin (BSA)

[2] = target: T2, Human serum albumin (HSA) (Homo sapiens, UniProt P02768); assay: as above; conditions: read-out: Binding Constant (M^-1) (converted)
T2 construct: gene ALB; mature serum albumin, 585 amino acids, 17 disulfides, single Trp214; purchased from Sigma-Aldrich
Excerpt: fluorescence enhancement of bound tetracycline, modified Benesi-Hildebrand on Human serum albumin (HSA)

T2 sequence (P02768 25-609): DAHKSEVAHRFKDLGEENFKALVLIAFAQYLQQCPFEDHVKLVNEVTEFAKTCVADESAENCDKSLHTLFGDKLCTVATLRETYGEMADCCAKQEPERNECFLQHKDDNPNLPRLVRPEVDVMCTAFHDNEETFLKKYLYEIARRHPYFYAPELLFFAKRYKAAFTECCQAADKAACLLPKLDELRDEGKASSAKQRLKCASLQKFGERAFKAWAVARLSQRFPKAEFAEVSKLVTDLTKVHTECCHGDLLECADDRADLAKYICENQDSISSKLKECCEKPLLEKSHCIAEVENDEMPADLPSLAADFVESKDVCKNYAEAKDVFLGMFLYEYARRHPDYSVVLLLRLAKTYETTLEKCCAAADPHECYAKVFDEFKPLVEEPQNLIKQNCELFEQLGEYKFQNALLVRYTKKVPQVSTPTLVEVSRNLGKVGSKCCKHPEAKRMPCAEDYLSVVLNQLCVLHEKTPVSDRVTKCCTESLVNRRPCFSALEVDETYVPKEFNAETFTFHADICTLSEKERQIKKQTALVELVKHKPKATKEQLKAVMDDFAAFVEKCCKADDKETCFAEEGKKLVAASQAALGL
T1 sequence (P02769 25-607): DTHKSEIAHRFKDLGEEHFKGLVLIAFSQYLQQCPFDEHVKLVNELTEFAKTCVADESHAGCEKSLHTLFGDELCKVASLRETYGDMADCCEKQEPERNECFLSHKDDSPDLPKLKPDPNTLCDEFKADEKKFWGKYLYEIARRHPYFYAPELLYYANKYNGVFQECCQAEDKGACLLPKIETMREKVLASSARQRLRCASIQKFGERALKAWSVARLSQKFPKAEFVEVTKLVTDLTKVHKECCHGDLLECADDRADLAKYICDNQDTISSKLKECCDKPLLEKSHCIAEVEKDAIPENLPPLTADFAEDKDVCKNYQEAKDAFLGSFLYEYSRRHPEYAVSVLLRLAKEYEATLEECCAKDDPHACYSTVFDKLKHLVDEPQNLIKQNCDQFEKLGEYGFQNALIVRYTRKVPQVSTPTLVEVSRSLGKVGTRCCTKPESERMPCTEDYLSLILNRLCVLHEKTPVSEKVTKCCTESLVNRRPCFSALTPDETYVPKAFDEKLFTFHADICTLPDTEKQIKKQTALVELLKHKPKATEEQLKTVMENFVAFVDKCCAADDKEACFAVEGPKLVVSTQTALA

Kd [1]: 21.2 µM
Kd [2]: 31.8 µM
Compound: CN(C)[C@@H]1C(O)=C(C(N)=O)C(=O)[C@@]2(O)C(O)=C3C(=O)c4c(O)cccc4[C@@](C)(O)[C@H]3C[C@@H]12 [Tetracycline hydrochloride]
